Test results from patent US20250136581A1, “SUBSTITUTED TRIAZOLE DERIVATIVE, PREPARATION METHOD THEREFOR, PHARMACEUTICAL COMPOSITION THEREOF, AND USE THEREOF” (SHANGHAI SIMR BIOTECHNOLOGY CO., LTD., priority 2021, published 2025).
Like-named read-outs stand apart in the source and are kept apart here.

Experiments:
[1] = biological target: α5-GABAA receptor (α5, β3, γ2 subunits) (Homo sapiens (Human), UniProt P18507+P31644); assay: Whole cell patch clamp, inverse agonist efficacy in HEK293 cells expressing α5-GABAA receptor; format: cell-based; conditions: HEK293, drug 100 nM, GABA 0.05 μM, −60 mV; read-out: Compound inverse agonist efficacy %
Excerpt: The inventors used electrophysiological methods to determine the inverse agonist efficacy of the drugs to be tested on the α5-GABAA receptor. The detailed methods are as follows:
Different subunits of the GABAA receptor were co-expressed in the HEK293 cell line to construct a fully functional GABAA receptor. The α, β, and γ subunits are essential to form a complete functional GABAA receptor. In this example, the present disclosure had established the following cell model: α5 subunit (see GenBank Accession No.: NM_000810.3 for protein sequences), β3 subunit (see GenBank Accession No.: NM_000814.5 for protein sequences), and γ2 subunit (see GenBank Accession No.: NM_000816.3 for protein sequences) were co-expressed in the HEK293 cell line, followed by screening the monoclonal stably transfected cell line. This cell line expressed a fully functional α5-GABAA receptor.
The monoclonal stably transfected HEK293 cell line expressing α5-GABAA receptor were cultured in 10 cm culture dishes and passaged when the cells grew to 80% to 90% confluent. During passaging, the culture medium was aspirated first, then 3 mL of DPBS phosphate buffer salt (Gibco™) was added to the culture dishes, and the culture dishes were shaken slightly, and DPBS was aspirated. 1 mL of trypsin (TrypLE Express, Gibco™) was added thereto, and the cells were digested at 37° C. for 1-2 minutes. Then 3 mL of complete medium (DMEM+10% FBS (Gibco™)) was added and the cells at the bottom of the culture dishes were dispersed. The cell suspension was transferred to a 15 mL centrifugal tube (Corning) and then centrifuged at 200 g for 3 minutes. The supernatant was discarded, 4 mL of complete medium was added, and the cells were gently blown and resuspended for use. If cell passaging was performed, the cell suspension was diluted at a ratio of 1:5 or 1:10. If cells for electrophysiological detection were prepared, the cell suspension was diluted in a ratio of 1:12, then added into a 24-well dish (Corning™) in which glass slides were placed and pretreated with Poly-D-Lysine, and the experiment was carried out after the cells adhered to the wall. The cells used for electrophysiology was cultured no more than 48 hours.
Drug concentration setting: The final drug concentration used in drug screening was 100 nM, and the GABA concentration was 0.05 μM. The whole cell patch clamp technique was used in electrophysiological assays, which could refer to the literature (I. Lecker, Y. Yin, D. S. Wang and B. A. Orser, British Journal of Anaesthesia, 2013, 110 (Si), i73-i81). The compositions of the extracellular solution for electrophysiology assay were as follows: 150 mM NaCl, 5 mM KCl, 2.5 mM CaCl2, 1 mM MgCl2, 10 mM HEPES, and 10 mM glucose (pH 7.4); the formulation of the electrode internal fluid for electrophysiology use was as follows: 140 mM CsCl, 11 mM EGTA, 10 mM HEPES, 2 mM CaCl2, 1 mM MgCl2, 4 mM MgATP, and 2 mM TEA (pH 7.3). The signal acquisition used an EPC-10 amplifier and the PatchMaster software (HEKA) or Axon700B amplifier and Clampex software (AXON). The recording electrode was pulled from borosilicate glass, and the electrode resistance was 4 to 6 MQ. The ALA-VC-8PG™ system was used for drug application. Single cell that grew independently was selected for recording. During recording, the cell membrane potential was clamped at −60 mV. During experiment, an extracellular solution was applied outside the cells for about 20 seconds. When the baseline reached to a stable state, the extracellular solution was switched to the GABA solution to induce an inward current. After about 20 to 40 seconds until the current was stable, the solution was switched to a corresponding drug solution to detect the effect of the drug. At last, the solution was switched to the extracellular solution, and the experiment was terminated when the baseline returned to the level before drug application. […]

[2] = biological target: human α5β3γ2 receptors (α5-GABAA receptor) (Homo sapiens (Human), UniProt P18507+P31644); assay: 3H-flunitrazepam competition binding, human α5β3γ2 GABAA receptor; conditions: HEK293 cell membranes, 1 nM 3H-flunitrazepam
Outline: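 Radioligand displacement of 1 nM 3H-flunitrazepam from membranes of HEK293 lines stably expressing the human subtypes, 1 h at room temperature, compound in 8-point 4-fold series. Bound label on GF/C filters counted by scintillation; Ki derived from fitted IC50, with flumazenil as low control.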

Row | inhibition at 0.1 µM [1] [%] | Ki ([2]; read-out: α5-GABAAR Ki) [nM] | Compound | Ki ([2]; α5-GABAAR Ki) [nM]
1 | 45.9 | 1.1 | Cc1nnn(-c2ccc(C(F)F)cc2)c1COc1ccc(N2CC(C(=O)Nc3ccncc3)C2)nn1 [Example 52, 1-(6-((1-(4-(Difluoromethyl)phenyl)-4-methyl-1H-1,2,3-triazol-5-yl)methoxy)pyridazin-3-yl)-N-(pyridin-4-yl)azetidine-3-carboxamide] | –
2 | 52 | 0.27 | Cc1nnn(-c2ccc(C(F)F)cc2)c1COc1ccc(C2=CC(=O)NCC2)nn1 [Example 57, 4-(6-((1-(4-(Difluoromethyl)phenyl)-4-methyl-1H-1,2,3-triazol-5-yl)methoxy)pyridazin-3-yl)-5,6-dihydropyridin-2(1H)-one] | –
3 | 46 | 1.85 | Cc1nnn(-c2ccc(C(F)F)cc2)c1COc1ccc(N2CCN(C3CCOC3)C(=O)C2)nn1 (centres unmarked) [Example 58, 4-(6-((1-(4-(Difluoromethyl)phenyl)-4-methyl-1H-1,2,3-triazol-5-yl)methoxy)pyridazin-3-yl)-1-(tetrahydrofuran-3-yl)piperazin-2-one] | –
4 | 44.9 | 3.97 | Cc1nnn(-c2ccc(C(F)F)cc2)c1COc1ccc(N2CCN(CCO)C(=O)C2)nn1 [Example 59, 4-(6-((1-(4-(Difluoromethyl)phenyl)-4-methyl-1H-1,2,3-triazol-5-yl)methoxy)pyridazin-3-yl)-1-(2-hydroxyethyl)piperazin-2-one] | –
5 | 47.2 | 1.33 | Cc1nnn(-c2ccc(C(F)F)cc2)c1COc1ccc(N2CCN(Cc3ccccn3)C(=O)C2)nn1 [Example 60, 4-(6-((1-(4-(Difluoromethyl)phenyl)-4-methyl-1H-1,2,3-triazol-5-yl)methoxy)pyridazin-3-yl)-1-(pyridin-2-ylmethyl)piperazin-2-one] | –
6 | 41.1 | 1.45 | CNS(=O)(=O)C1CCN(c2ccc(OCc3c(C)nnn3-c3ccc(C(F)F)cc3)nn2)C1 (centres unmarked) [Example 64, 1-(6-((1-(4-(Difluoromethyl)phenyl)-4-methyl-1H-1,2,3-triazol-5-yl)methoxy)pyridazin-3-yl)-N-methylpyrrolidine-3-sulfonamide] | –
7 | 56.1 | 2.37 | Cc1nnn(-c2ccc(C(F)F)cc2)c1COc1ccc(N2CCN3C(=O)CNC(=O)[C@H]3C2)nn1 [Example 65, (R)-8-(6-((1-(4-(Difluoromethyl)phenyl)-4-methyl-1H-1,2,3-triazol-5-yl)methoxy)pyridazin-3-yl)hexahydro-1H-pyrazino[1,2-a]pyrazine-1,4(6H)-dione] | –
8 | 52.7 | 4.07 | Cc1nnn(-c2ccc(C(F)F)cc2)c1COc1ccc(N2CC(CO)OC2=O)nn1 (centres unmarked) [Example 66, 3-(6-((1-(4-(Difluoromethyl)phenyl)-4-methyl-1H-1,2,3-triazol-5-yl)methoxy)pyridazin-3-yl)-5-(hydroxymethyl)oxazolidin-2-one] | –
9 | 55.1 | 0.9 | Cc1nnn(-c2ccc(C(F)F)cc2)c1COc1ccc(N2CC(=O)N3CCN(C)CC3C2)nn1 (centres unmarked) [Example 69, 2-(6-((1-(4-(Difluoromethyl)phenyl)-4-methyl-1H-1,2,3-triazol-5-yl)methoxy)pyridazin-3-yl)-8-methylhexahydro-1H-pyrazino[1,2-a]pyrazin-4(6H)-one] | –
10 | 41.3 | 4.93 | Cc1nnn(-c2ccc(F)cn2)c1COc1ccc(N2CCNC(=O)C2)nn1 [Example 73, 4-(6-((1-(5-Fluoropyridin-2-yl)-4-methyl-1H-1,2,3-triazol-5-yl)methoxy)pyridazin-3-yl)piperazin-2-one] | –
11 | 49.2 | 0.75 | Cc1nnn(-c2ccc(C(F)F)cc2)c1COc1ccc(C2=CCCOC2)nn1 [Example 90, 3-((1-(4-(Difluoromethyl)phenyl)-4-methyl-1H-1,2,3-triazol-5-yl)methoxy)-6-(5,6-dihydro-2H-pyran-3-yl)pyridazine] | –
12 | 49.7 | 1.1 | Cc1nnn(-c2ccc(C(F)F)cc2)c1COc1ccc(N2CC(=O)N3CCN(Cc4ncccn4)CC3C2)nn1 (centres unmarked) [Example 92, 2-(6-((1-(4-(Difluoromethyl)phenyl)-4-methyl-1H-1,2,3-triazol-5-yl)methoxy)pyridazin-3-yl)-8-(pyrimidin-2-ylmethyl)octahydro-4H-pyrazino[1,2-a]pyrazin-4-one] | –
13 | 46.5 | 1.34 | Cc1nnn(-c2ccc(C(F)F)cc2)c1COc1ccc(N2CCN(CC3CCCO3)C(=O)C2)nn1 (centres unmarked) [Example 96, 4-(6-((1-(4-(Difluoromethyl)phenyl)-4-methyl-1H-1,2,3-triazol-5-yl)methoxy)pyridazin-3-yl)-1-((tetrahydrofuran-2-yl)methyl)piperazin-2-one] | –
14 | 53.7 | 1.53 | Cc1nnn(-c2ccc(C(F)F)cc2)c1COc1ccc(N2CCN(CC3CCOC3)C(=O)C2)nn1 (centres unmarked) [Example 98, 4-(6-((1-(4-(Difluoromethyl)phenyl)-4-methyl-1H-1,2,3-triazol-5-yl)methoxy)pyridazin-3-yl)-1-((tetrahydrofuran-3-yl)methyl)piperazin-2-one] | –
15 | 54.6 | 1.54 | Cc1nnn(-c2ccc(C(F)F)cc2)c1COc1ccc(N2CCN(CC3COC3)C(=O)C2)nn1 [Example 100, 4-(6-((1-(4-(Difluoromethyl)phenyl)-4-methyl-1H-1,2,3-triazol-5-yl)methoxy)pyridazin-3-yl)-1-(oxetan-3-ylmethyl)piperazin-2-one] | –
16 | 43.9 | 1.15 | Cc1nnn(-c2ccc(C(F)F)cc2)c1COc1ccc(N2CC(C(=O)Nc3ccn(C)n3)C2)nn1 [Example 101, 1-(6-((1-(4-(Difluoromethyl)phenyl)-4-methyl-1H-1,2,3-triazol-5-yl)methoxy)pyridazin-3-yl)-N-(1-methyl-1H-pyrazol-3-yl)azetidine-3-carboxamide] | –

Row | Compound | inhibition at 0.1 µM [1] [%] | Ki ([2]; read-out: α5-GABAAR Ki) [nM] | Ki ([2]; α5-GABAAR Ki) [nM]
17 | Cc1nnn(-c2ccc(C(F)F)cc2)c1COc1ccc(N2CCN(CC(F)(F)F)C(=O)C2)nn1 [Example 62, 4-(6-((1-(4-(Difluoromethyl)phenyl)-4-methyl-1H-1,2,3-triazol-5-yl)methoxy)pyridazin-3-yl)-1-(2,2,2-trifluoroethyl)piperazin-2-one] | 44.6 | 1.18 | –
18 | Cc1nnn(-c2ccc(C(F)F)cc2)c1COc1ccc(N2CCN(CC3CC3)C(=O)C2)nn1 [Example 97, 1-(Cyclopropylmethyl)-4-(6-((1-(4-(difluoromethyl)phenyl)-4-methyl-1H-1,2,3-triazol-5-yl)methoxy)pyridazin-3-yl)piperazin-2-one] | 49.2 | – | 1.11
19 | Cc1nnn(-c2ccc(C(F)F)cc2)c1COc1ccc(N2CCN(CC#N)C(=O)C2)nn1 [Example 99, 2-(4-(6-((1-(4-(Difluoromethyl)phenyl)-4-methyl-1H-1,2,3-triazol-5-yl)methoxy)pyridazin-3-yl)-2-oxopiperazin-1-yl)acetonitrile] | 48 | 1.95 | –
